86 compounds from a melting point compilation (Tetko et al.; mined from patent text by program, amines drawn as free bases though some values may be those of a salt) can be followed below.

The structures appear in SMILES notation.

For the compound `CC(=O)OC1CCC(n2c(Br)nc3cc(Cl)c(Cl)cc32)C1OC(C)=O` (stereo unspecified), the melting point lay in the range of 140 to 146 °C.

The compound `O=C(O)c1ccc(=O)n(CCNC(=O)c2cccnc2)c1` displayed a melting point above 295 °C.

As to `CC(C)c1sc(-c2ccccc2)c(-c2ccc(F)cc2)c1CO`, the melting point lay within 140 to 143 °C.

`O=c1c(CCCCCc2cccnc2)cc2cccnc2n1-c1cccc([N+](=O)[O-])c1` had a melting point of 155 °C.

With `CC(=O)NCC1CC1c1c(Cl)ccc2nn(C)cc12` (stereo unspecified), the melting point is 149 to 150 °C.

On to `CO[C@H]1[C@H](N2CCCC2)c2cc(C#N)ccc2OC1(C)C` (relative stereo), for which the melting point lay in the range of 108 to 109 °C.

`Clc1cccnc1-c1cc(OCCc2ccccn2)c2[nH]nc(Nc3nccs3)c2c1` showed a melting point of 185 to 187 °C.

In the case of `CC(=O)Nc1ccccc1-n1cc2c(c1-c1ccccc1)c(=O)n(C)c(=O)n2C`, the melting point was above 250 °C.

Compound `CC1(C)OC(C=Cc2ccncc2)=CC1=O` gave a melting point of 94 to 96 °C.

`Cc1c(NC(=O)c2ccc(OCC3CCOC3)cc2)ccc2cc(CNC(C)C)cnc12` (stereo unspecified) gave a melting point of 106 °C.

Consider `O=C(C(=O)c1ccc(Oc2ccc(O)cc2)cc1)c1ccc(Oc2ccc(O)cc2)cc1`, for which the melting point was 220 to 221 °C.

As for `CCN(CC)S(=O)(=O)c1c(Cl)c(Cl)c(Cl)c2nc(C(F)(F)F)[nH]c12`, the melting point was in the range of 155 to 157 °C.

In turn, `CCCCCCCCCCCCCCCCO[C@@H]1CCCO[C@H]1CO` (relative stereo) had a melting point of 41 to 42 °C.

In turn, `FC(F)(F)c1nn(-c2c(Cl)cc(Cl)cc2Cl)cc1Br` returned a melting point of 93 to 94 °C.

Compound `Cc1onc(C(=O)c2ccccc2)c1NC(=O)CCl` showed a melting point of 86 to 88 °C.

For the compound `O=C(Nc1ccc(Cl)cc1C(=O)NCc1ccc2c(c1)OCO2)Oc1ccccc1`, the melting point is 149 to 150 °C.

Consider `CCOC(=O)N1CCC(n2c(=O)[nH]c3cc(Cl)ccc32)CC1`, for which the melting point amounted to 160 °C.

As for `O=C(Nc1ccccc1)c1c[nH]c2c1C(=O)CCC2`, the melting point lay within 225 to 226 °C.

For the compound `Cn1c(=O)oc2cc3c(cc21)OCC31C(=O)N(Cc2ccc(C(F)(F)F)o2)c2ccccc21` (stereo unspecified), the melting point is 198 to 199 °C.

The compound `O=C(OCC(F)(F)F)c1ncn2c1CN=C(c1ccccc1F)c1cc(Br)ccc1-2` came in with a melting point of 223 to 224 °C.

Compound `CCOC(=O)c1nc2ccc(F)cc2n(CC)c1=O` came in with a melting point of 99 to 102 °C.

In turn, `COCC(=O)N[C@@H]1c2cc(C#N)ccc2OC(C)(C)[C@H]1O` (relative stereo) showed a melting point of 162 to 163 °C.

Compound `CC(C)(C)OC(=O)NCCCCCCC(=O)Nc1ccc(-n2nc(C(F)(F)F)cc2C(F)(F)F)cc1` showed a melting point of 86 to 88 °C.

Turning to `CN1C(=O)C2C3C=CC(C3)C2(c2ccc(F)c(F)c2)C1=O` (stereo unspecified), the melting point fell in the range of 116 to 120 °C.

For the compound `CC(C)(C)c1cc(SCCc2nncs2)cc(C(C)(C)C)c1O`, the melting point lay in the range of 118 to 120 °C.

Turning to `Cc1cc(Cl)ccc1-n1nc(O)c2c(=O)c3ccc(Cl)cc3[nH]c2c1=O`, the melting point lay within 336 to 339 °C.

In the case of `O=Cc1cccc(-c2cc3c4c(ccn4C(=O)CNC3)c2)c1`, the melting point was 192 to 194 °C.

In turn, `Cc1ccc2nc(N3CC[C@H](NCCO)C3)ccc2c1NC(=O)CC1CCCCC1` yielded a melting point of 204 to 207 °C.

`COc1ccccc1S(=O)(=O)c1c(NS(=O)(=O)c2ccc(C(C)(C)C)cc2)ncnc1OCCOc1ncc(Br)cn1` registered a melting point of 208 °C.

`CC1(C)Cc2c(c(N3CCCCC3)nc3sc4c(NCCN5CCOCC5)ncnc4c23)CO1` registered a melting point of 158 °C.

`Cc1nc2cccc(S(=O)(=O)n3c(CCCC(=O)O)cc4nc(Cl)ccc43)c2s1` had a melting point of 225 °C.

Take `NC(=O)c1ccc(-c2ccc(-c3ccn(C(CC(=O)O)C(=O)NC(CO)Cc4ccccc4)c3)cc2)cc1` (stereo unspecified): the melting point was in the range of 218 to 220 °C.

With `Cn1c(COc2ccc(CC3SC(=O)NC3=O)cc2)nc2ccc(Oc3ccc(NC(=O)c4cccc(Cl)c4)cc3)cc21` (stereo unspecified), the melting point fell in the range of 238 to 239 °C.

As to `CC(C)NCC(O)COc1cccc2c1SCCC2` (stereo unspecified), the melting point lay in the range of 91 to 92 °C.

As to `CN(CCOc1ccc(CC(SCCN)C(=O)O)cc1)c1nc2ccccc2o1` (stereo unspecified), the melting point was in the range of 200 to 201 °C.

`Cc1cnn2c(-c3cccc(-c4ccccc4C#N)c3)cnc2n1` displayed a melting point of 211 to 216 °C.

As for `N#CC1=C(C2CCCC2)Nc2n[nH]cc2C1c1cccc(C#N)c1Br` (stereo unspecified), the melting point came out at 247 °C.

For `O=C(NC1CCCC1)c1cc2ccncc2[nH]1`, the melting point fell in the range of 220 to 224 °C.

Compound `C=CCOC(=O)c1ccc(NC(=O)C(C(N)=O)c2ccc3c(c2)C(C)(C)CCC3(C)C)cc1` (stereo unspecified) displayed a melting point of 210 to 211 °C.

Turning to `O=c1c2ccc(Cl)cc2[nH]n1Cc1ccccc1`, the melting point was in the range of 209 to 214 °C.

With `CCc1[nH]nc(C(=O)NC2CCCC2)c1NC(=O)c1cnccn1`, the melting point lay in the range of 175 to 176 °C.

As for `Cc1cc(NC(=O)C2CSc3sccc3C2=O)no1` (stereo unspecified), the melting point was 143 to 146 °C.

As to `O=S(=O)(C(=CNc1nccs1)S(=O)(=O)c1ccccc1)c1ccccc1`, the melting point was in the range of 189 to 191 °C.

The compound `Cc1cc(OCc2ccccc2)cc(OCCCc2ccccc2)c1C(=O)O` returned a melting point of 109 to 111 °C.

Regarding `COc1cc2c(cc1OC)Nc1nccn1C2`, the melting point fell in the range of 215 to 217 °C.

In turn, `CS(=O)(=O)NC(=O)C1(CCCCCCCCCCCCC2(C(N)=O)CC2)CC1` had a melting point of 119 to 120 °C.

`CCOC(=O)c1ncn(Cc2ccc(Cl)c(Cl)c2)c1C(=O)OCC` displayed a melting point of 105 to 107 °C.

`Cc1n[nH]c2ccccc12` registered a melting point of 110 to 113 °C.

Consider `Cc1cc(SC(C)C)c(NC(=O)CCCSc2nc3cccc(C(F)(F)F)c3o2)c(SC(C)C)n1`, for which the melting point is 135 to 136 °C.

In the case of `Clc1ccc(SC(Cn2ccnc2)C23CC4CC(CC(C4)C2)C3)cc1Cl` (stereo unspecified), the melting point lay in the range of 179 to 181 °C.

As to `O=C(CCSCCC(=O)Nc1ccc(Nc2ccccc2)cc1)Nc1ccc(Nc2ccccc2)cc1`, the melting point lay in the range of 199 to 203 °C.

In turn, `COc1ccc(C=CC(=O)O)cc1-c1cc2c(cc1OCCN1CCCCC1)C(C)(C)CCC2(C)C` gave a melting point of 251 to 253 °C.

The compound `CCC(C)n1cc(Cl)nc(N2CCc3cc(Br)cc(Cl)c32)c1=O` (stereo unspecified) came in with a melting point of 150 °C.

Compound `Cc1cc(Nc2cc(-c3cnc4cc[nH]c4c3)cn3ccnc23)nn1CCO` had a melting point of 127 to 130 °C.

The compound `CCCCC(=O)OCCOCn1cnc2c(=O)[nH]c(N)nc21` showed a melting point of 215 to 217 °C.

With `CC(C)c1cc(S(N)(=O)=O)c(C(C)C)cc1C(=O)O`, the melting point lay in the range of 225 to 231 °C.

Take `C#CCOC(=O)Cc1c(C)nn(-c2cnccc2C)c1-c1ccccc1`: the melting point was 106 °C.

The compound `CC(=O)NC[C@H]1CN(c2ccc(N3CCC(n4nnnc4CS(C)(=O)=O)CC3)c(F)c2)C(=O)O1` showed a melting point of 192 °C.

`O=C(O)Cc1ccc(-c2nc3cccc(Cl)c3o2)cc1` yielded a melting point of 205 to 210 °C.

As to `O=C(CC1CC1)N[C@H]1CC[C@H](CCN2CCN(c3nccc4c3OCC4)CC2)CC1`, the melting point worked out at 198 °C.

With `COC(=O)c1cnc2c3cc(NS(C)(=O)=O)ccc3ncn2c1=O`, the melting point was in the range of 293 to 296 °C.

`O=C1c2ccccc2C(O)N1CCCCCO[N+](=O)[O-]` (stereo unspecified) yielded a melting point of 70 to 72 °C.

With `CCC1(c2cccs2)NC(=O)NC1=O` (stereo unspecified), the melting point lay within 173 to 174 °C.

In the case of `CCCCCCS(=O)(=O)Cc1ccc(C(C)(C)NC(=O)OC)cc1`, the melting point is 104 to 105 °C.

Compound `Nc1ccc(S(=O)(=O)c2cc(-c3cc(C(F)(F)F)cc(C(F)(F)F)c3)nc(N3CCCC3)c2)cc1` gave a melting point of 184 to 186 °C.

The compound `COc1cc2ncc(C#N)c(Nc3ccc4c(C)cc(=O)[nH]c4c3)c2cc1OC` came in with a melting point above 300 °C.

For the compound `CN(CC(=O)C(Cc1ccccc1)NC(=O)c1ccccc1)C(=O)N1CCCC1C(=O)O` (stereo unspecified), the melting point was 60 to 82 °C.

With `CC1(C)NC(=O)N(CCC(COc2ccc(-c3ccc(C#N)cc3)cc2)N(O)C=O)C1=O` (stereo unspecified), the melting point was in the range of 202 to 204 °C.

As to `C#Cc1ccnc(-c2cc(N)c(C#Cc3ccc(C(C)=S)cc3)cc2[N+](=O)[O-])c1`, the melting point lay within 185 to 188 °C.

For the compound `O=c1[nH]c2c(c3nc(-c4ccccn4)nn13)CN(Cc1ccccc1)CC2`, the melting point was found to be 290 °C.

Compound `O=C(c1ccc(-c2ccccc2)cc1)C(Br)CCCl` (stereo unspecified) registered a melting point of 85 to 88 °C.

The compound `CN1C(=O)C=C[C@]2(C)c3ccc(-c4cccc5ccccc45)cc3CC[C@@H]12` registered a melting point of 172 to 173 °C.

Compound `CCOCC(=O)c1nc2c(Cl)cc(F)c(-n3c(=O)cc(C(F)(F)F)n(C)c3=O)c2o1` displayed a melting point of 56 to 58 °C.

`COc1ccc(S(=O)(=O)c2ncn(-c3ccccc3)c2-c2ccccc2)cc1` returned a melting point of 157 °C.

As for `CC(C)(CNc1ccnc2cc(Cl)ccc12)NCc1cccc(Cl)c1`, the melting point fell in the range of 125 to 126 °C.

In the case of `Cc1c(-c2ccc(=O)n(C)c2)cccc1[N+](=O)[O-]`, the melting point fell in the range of 157 to 159 °C.

Compound `OC[C@H](O)COc1ccccc1OCC1CC1` registered a melting point of 95 to 97 °C.

Compound `COC(=O)c1sc(C)c(Cl)c1O` returned a melting point of 105 to 107 °C.

Turning to `C[C@@H](O)CNC(=O)N1CC(c2ccc(F)cc2)C1`, the melting point lay within 104 to 105 °C.

Regarding `COc1ccc(C(=O)O)c(OCc2ccc(OCCc3nc(-c4ccccc4)oc3C)cc2)c1`, the melting point fell in the range of 113 to 115 °C.

Take `O=C(O)C(=O)CC(=O)c1cccn1Cc1cc(F)c(F)cc1F`: the melting point is 154 to 156 °C.

The compound `CCNc1cc(Oc2cccc(C(F)(F)F)c2)nc(C(=O)NN=CC(F)(F)C(F)(F)F)c1` returned a melting point of 101 to 102 °C.

The compound `COc1ccc(S(=O)(=O)NC(C)c2cc(F)ccc2-c2ccccc2F)cc1` (stereo unspecified) registered a melting point of 133 to 135 °C.

Turning to `CCOC(=O)COc1ccc(CCCOC(=O)NCC2CC2)c(Oc2ncc(C(F)(F)F)cc2Cl)c1`, the melting point is 113 °C.

Take `CCOC(=O)C(=Cc1cccc([N+](=O)[O-])c1)C(=O)C(Cl)(Cl)Cl`: the melting point was in the range of 106 to 107 °C.

As for `CS(=O)(=O)c1ccc(-c2ccccc2-c2ccc(F)cc2)cc1`, the melting point lay within 178 to 179 °C.
